One data set relates to HepG2 cells. Briefly: DiI-LDL uptake (LDLR ligand uptake activity) in HepG2 cells. It counts as cell-based, human. The conditions noted are these: for Activity in LDL uptake at 10 uM (relative to control): 20 hours (first symbol of the cell); for Activity in LDL uptake at 40 uM (relative to control): 20 hours (second symbol of the cell); for Activity on DiI-LDL uptake: 20 hours. How it is done:
HepG2 cells (2×10^5 cells/well) in 24-well culture plates were treated with various compounds at indicated concentrations for 20 hours. The fluorescent 1.1′-dioctadecyl-3,3,3′,3′-tetramethylindocarbocyanin perchlorate (DiI-LDL) (Biomedical Technologies, Stoughton, Mass.) at a concentration of 2 μg/mL was added to cells at the end of treatment. After 4 hours, the medium was removed, cells were washed with cold PBS, and were examined immediately under a fluorescent microscope (Nikon) at 200× amplification. The fluorescent intensity in compound-treated cells was compared to that in untreated control cells. […] In these experiments berberine chloride was used for comparison.
The combined beneficial effects of these novel compounds on elevation of LDLR mRNA levels likely through the mechanism of mRNA stabilization and their inhibitory activity towards PCSK9, the secreted protease that degrades LDLR protein, result in strong increases in LDL ligand uptake activity through increased receptor surface abundance. […] Briefly, HepG2 cells (2×10^5 cells/well) in 24-well culture plates were treated with various compounds at 10 and 40 uM concentrations for 20 hours. The fluorescent 1.1′-dioctadecyl-3,3,3′,3′-tetramethylindocarbocyanin perchlorate (DiI-LDL) (Biomedical Technologies, Stoughton, Mass.) at a concentration of 2 μg/ml was added to cells at the end of treatment. After 4 hours, the medium was removed; cells were washed with cold PBS, and were examined immediately under a fluorescent microscope (Nikon) at 200× amplification. The fluorescent intensity in compound-treated cells was compared to that in untreated control cells. […]

Data set [1] has as its system Wister male rats under a high fat and high cholesterol diet. Briefly: Lipid lowering effects of (14R,13S)-CRDL hydrochloride salt in Wister rats. It counts as in vivo, rat. The following applies: 75 mg/kg daily orally. As to the method:
Male Wister rats were used as an animal model to examine the in vivo effects of (14R,13S)—CRDL in plasma lipid levels.
In one experiment, 18 Wister male rats under a high fat and high cholesterol diet were divided into 2 groups. One group was given (14R,13S)—CRDL hydrochloride salt orally at a daily dose of 75 mg/kg by an orogastric tube for 4 weeks, and the control group received daily treatment of equal amount of vehicle (0.1 M sodium phosphate, pH 3.5). Serum lipid levels were measured weekly.
At the end of treatment, Rats were sacrificed and blood and sera were collected to measure several critical parameters for liver function and kidney function. […] Kidney function and blood glucose level were not changed by the treatment.

The next data set deals with hyperlipidemic rabbits. Nature of the data set: Lipid lowering effects and blood chemistry in hyperlipidemic rabbits. The conditions noted are these: day 14, doses increased after day 7 to 60 mg/kg (128(+)/128(−)) and 10 mg/kg (SMV/ATV), mean ± SD.
Data set [2] relates to LDLR mRNA. Nature of the data set: LDLR mRNA expression in HepG2 cells, quantitative real-time RT-PCR. It counts as cell-based, human. The conditions noted are these: Homo sapiens, 24 hours, mean ± s.d.; for fold induction at 10 µM: read-out: Activity on LDLR mRNA at 10 uM (fold of control); for fold induction at 40 µM: read-out: Activity on LDLR mRNA at 40 uM (fold of control). How it is done: Activities of some compounds of Formulas I, II, III, and IV on LDLR mRNA expression were determined. HepG2 cells were treated with new compounds individually at a dose less than or equal to 10 μM for 24 hours. Total RNA was harvested for quantitative real-time RT-PCR analysis using the method described in Example 16B. […] In these experiments, berberine chloride was included for comparison.
The time-dependent effects of compounds of Formula I, II, III, and IV on the upregulation of LDLR mRNA and the inhibition of PCSK9 mRNA expression were examined (Horton J D, Cohen J C, Hobbs H I T. “Molecular biology of PCSK9: its role in LDL metabolism” TRENDS in Biochemical Sciences 2007; 32:71-77). HepG2 cells were treated with new compounds individually at 20 uM dose for 1 day, 2 day, and 3 days. Total RNA was isolated and 2 μg was used to generate cDNA in a reaction containing random primers and M-MLV at 37° C. for 1 hour in a volume of 25 μl. Real-time PCR was performed on the cDNA using MCEP REALPLEX 2 SYSTEM (Eppendorf) and Universal MasterMix (Applied Biosystems). Human LDLR, PCSK9, and GAPDH Pre-Developed TaqMan Assay Reagents (Applied Biosystems) were used to assess the levels of mRNA expressions in HepG2. The levels of LDLR mRNA or PCSK9 mRNA were normalized to that of GAPDH. Each RNA samples was assayed in triplicate. The abundance of LDLR mRNA or PCSK9 mRNA in untreated cells was defined as 1, and the amounts of LDLR mRNA or PCSK9 from compound-treated cells were plotted relative to that value (FIG. 10). The data shown are mean±s.d.
Total RNA was harvested for quantitative real-time RT-PCR analysis using method described in Examples 16B.
The effects of 23 compounds on the mRNA expressions of LDLR and PCSK9 were examined using quantitative real-time RT-PCR assays. HepG2 cells were treated with various compounds at 10 and 40 uM concentrations for 24 hours. Total RNA was isolated and […] was used to generate cDNA in a reaction containing random primers and M-MLV at 37° C. for 1 h in a volume of 25 μl. Real-time PCR was performed on the cDNA using MCEP REALPLEX 2 SYSTEM (Eppendorf) and Universal MasterMix (Applied Biosystems). Human LDLR, PCSK9, and GAPDH Pre-Developed TaqMan Assay Reagents (Applied Biosystems) were used to assess the levels of mRNA expressions in HepG2. The levels of LDLR and PCSK9 mRNA were normalized to that of GAPDH. Each RNA samples was assayed in duplicate. The fold activity was calculated by dividing mRNA abundance in compound treated cells with that of control.
On the technique in general: Real-time PCR tracks product formation cycle by cycle.

Data set [3] relates to LDLR mRNA. Nature of the data set: LDLR mRNA expression in HepG2 cells, semi-quantitative RT-PCR. In kind it is cell-based, human. The conditions noted are these: indicated doses, 8 hours, semi-quantitative RT-PCR (FIG. 3). As to the method:
HepG2 cells obtained from American Tissue Culture Collection (Manassas, Va., USA) were seeded in 6-well culture plates at a density of 0.8×10^6 cells/well cultured in EMEM containing 0.5% FBS and were treated with each purified compound at indicated doses for 8 hours. Total RNA was isolated, and 2 μg per sample was reverse transcribed with random primers using M-MLV (Promega) at 37° C. for 1 hour. PCR was carried out at 94° C. for 30 sec, 60° C. for 30 sec, and 72° C. for 30 sec with initial activation of the enzyme at 94° C. for 1 minute. Thirty cycles were performed for LDLR and GAPDH. PCR was performed using primers HLDLR-up and HLDLR-lo for LDLR and primers HGAPDH-up and HGAPDH-lo for GAPDH. The PCR products were separated on a 1% agarose gel and the band intensity was quantitated. LDLR mRNA levels were corrected by measuring GAPDH mRNA levels.
Specific stereochemical requirements of +1-THP in the upregulation of LDLR mRNA expression were determined by a similar experiment. HepG2 cells were treated with the pure 14R-(+)-THP or the pure 14S-(−)-THP at the indicated concentrations for 24 hours. The levels of LDLR mRNA and GAPDH mRNA in untreated and the compound-treated HepG2 cells were assessed by semi-quantitative RT-PCR.

Another data set relates to ERK. Briefly: ERK activation in HepG2 cells, Western blot with anti-phosphorylated ERK. The following applies: 20 μg/mL, 0.5, 2, or 8 hours (FIG. 5). It counts as cell-based, human. As to the method:
HepG2 cells cultured in 60-mm dishes were treated with various compounds at a concentration of 15 μg/ml for 2 hours. Total cell lysate was isolated and 50 μg of protein was separated on SDS-PAGE and transferred to nitrocellulose membrane.
HepG2 cells were treated with 20 μg/mL 14R,13S-(+)-CRDL and 14R-(+)-THP respectively for 0.5, 2, or 8 hours. Cells were then lysed. After protein quantitation using the BCA™ protein assay reagent (PIERCE), 50 μg protein from each sample was subjected to SDS-PAGE, followed by Western blotting using anti-phosphorylated ERK (Cell Signaling) and subsequently reprobed with antibody against β-actin.

Data set [4] relates to acetyl coenzyme A carboxylase (ACC). Nature of the data set: ACC phosphorylation in HepG2 cells, Western blot. The conditions noted are these: 20 μg/ml, 0.5, 2, or 8 hours (FIG. 6). It counts as cell-based, human. How it is done:
HepG2 cells were treated with 20 μg/ml14R-(+)-THP for 0.5, 2, or 8 hours. Cells were lysed, and 50 μg protein from each sample was subjected to SDS-PAGE, followed by Western blotting using anti-phosphorylated ACC (Cell Signaling) and subsequently reprobed with antibody against β-actin.
Cells were harvested after 1, 2, and 3 days treatment and western blot analysis was conducted using antibodies directed to LDLR and PCSK9. Chicken anti-LDLR was purchased from Abeam, the mouse anti-PCSK9 was purchased from Cayman Chemicals, and anti-pACC was purchased from Cell Signaling.
(In general: A western blot detects proteins with antibodies after separation by electrophoresis.)

The values below come from US8710071B2, “Compounds, compositions and methods for reducing lipid levels” (CVI Pharmaceuticals Limited, priority 2008, dated 2014).

“Also recorded” adds a separate entry of the source.

Protocol for hyperlipidemic rabbits: Forty-two male Japanese rabbits were fed the cholesterol enriched rabbit diet for two weeks to induce hypercholesterolemia. […] Serum samples were collected at day 0 (before the drug treatment) and day 7. […] All tested animals were sacrified at the end of a total of 14 days treatment and serum samples were analyzed for TC, LDL-C, TG, and HDL-C. In addition to lipid profiles, a number of biochemical parameters were also analyzed to aseesee the effects of drug treatments on liver function, muscle function, kidney function, and heart function.

`COc1ccc2c(c1OS(=O)(=O)c1ccccc1)CN1CCc3cc(C)ccc3C1C2` (stereo not drawn) [Compound 121, 10-Methoxy-3-methyl-5,6,7,8,13,13a-hexahydroisoquinolino[2,1-b]isoquinofin-9-yl benzenesulfonate]: in the data set with HepG2 cells, the “Activity in LDL uptake at 10 uM (relative to control)” value was “+++” and the “Activity in LDL uptake at 40 uM (relative to control)” value is on record as “+”.
`COc1cc2c(cc1OC)[C@H]1[C@@H](C)c3ccc(OC)c(OC)c3CN1CC2` [CRDL, corydaline]: the “serum levels of AST and ALT (liver function)” value in data set [1] (end of 4-week treatment, versus control group, 75 mg/kg) is on record as “liver function was not damaged; also recorded: statistically lower”. Moreover, the adverse effects entry in data set [1] (entire 4-week treatment) is reported as “No any adverse effects were observed”.
As for `COc1cc2c(cc1OCCO)CCN1Cc3c(ccc(OC)c3OS(=O)(=O)c3ccccc3)CC21` (stereo not drawn) [Compound 138, 3-(2-Hydroxyethoxy)-2,10-dimethoxy-5,6,7,8,13,13a-hexahydroisoquinolino[2,1-b]isoquinolin-9-yl benzenesulfonate], in the data set on HepG2 cells, the “Activity in LDL uptake at 10 uM (relative to control)” value is “+” and the “Activity in LDL uptake at 40 uM (relative to control)” value is “+++”.
Regarding `CCC(C)(C)C(=O)O[C@H]1C[C@@H](C)C=C2C=C[C@H](C)[C@H](CC[C@@H]3C[C@@H](O)CC(=O)O3)[C@H]21` [SMV, simvastatin, reference compound], in the data set on hyperlipidemic rabbits, the “serum total cholesterol levels, treatment day 14” value is given as 26.2 ± 5.5.
For `CC(C)c1c(C(=O)Nc2ccccc2)c(-c2ccccc2)c(-c2ccc(F)cc2)n1CC[C@@H](O)C[C@@H](O)CC(=O)O` [ATV, atorvastatin, reference compound], the “serum total cholesterol levels, treatment day 14” value in the data set on hyperlipidemic rabbits came out at 33.9 ± 6.5.
Turning to `COc1cc2c(cc1C(=O)NCCO)C1Cc3ccc(OC)c(OS(=O)(=O)c4ccccc4)c3CN1CC2` (stereo not drawn) [Compound 137, 2-[N-(2-hydroxyethyl)carbamoyl]-3,10-dimethoxy-5,6,7,8,13,13a-hexahydroisoquinolino[2,1-b]isoquinolin-9-yl benzenesulfonate], in the data set on HepG2 cells, the “Activity in LDL uptake at 10 uM (relative to control)” value is “+” and the “Activity in LDL uptake at 40 uM (relative to control)” value is on record as “+++”.
Consider `COc1ccc2c(c1)CCN1Cc3c(ccc(OC)c3OS(=O)(=O)c3ccccc3)CC21` (stereo not drawn) [Compound 115, 3,10-Dimethoxy-5,6,7,8,13,13a-hexahydroisoquinolino[2,1-b]isoquinolin-9-yl benzenesulfonate], for which the “Activity in LDL uptake at 40 uM (relative to control)” value in the data set on HepG2 cells is recorded as “+++”. In addition, in the data set with LDLR mRNA [2], the fold induction at 10 µM amounted to 0.51 ± 0.11 and the fold induction at 40 µM is 2.65 ± 0.06.
In the case of `COc1cc2c(cc1OC)[C@H]1Cc3ccc(OC)c(OC)c3CN1CC2` [14R-(+)-THP, 14R-(+)-tetrahydropalmatine], in the data set on LDLR mRNA [3], the “LDLR mRNA expression” value was “potent and dose-dependent effects”. In addition, the “Activity on DiI-LDL uptake” value in the data set with HepG2 cells (B: compound dose ≦ 40 μM) is listed as “++”. For the same molecule, the “activation of ERK” value in the data set with ERK is on record as “activation of ERK”. In addition, in data set [4], the ACC phosphorylation result is reported as “induction of ACC phosphorylation”.
With `COc1cc2c(cc1OC)[C@H]1[C@@H](C)c3ccc(OC)c(OC)c3CN1CC2` [14R,13S-(+)-CRDL, 14R,13S-(+)-corydaline], in the data set with LDLR mRNA [3], the “LDLR mRNA expression” value was “potent and dose-dependent effects”. Further, the “Activity on DiI-LDL uptake” value with HepG2 cells (B: compound dose ≦ 40 μM) is on record as “++”. In the data set on ERK, the “activation of ERK” value is on record as “activation of ERK”.
Turning to `COc1ccc2c(c1OS(=O)(=O)c1ccccc1)CN1CCc3cc4c(cc3C1C2)OCCO4` (stereo not drawn) [Compound 116, 11-Methoxy-6,7,8,9,14,14a-hexahydro-2H,3H-1,4-dioxano[5,6-g]isoquinoluio[3,2-a]isoquinolin-10-yl benzenesulfonate], in the data set on LDLR mRNA [2], the fold induction at 10 µM is 1.41 ± 0.04 and the fold induction at 40 µM worked out at 7.19 ± 1.29.
Turning to `COc1cc2c(cc1O)CCN1Cc3c(ccc(OC)c3OC)CC21` (stereo not drawn) [14R-(+)-CRPM, 14R-(+)-corypalmine], in the data set on LDLR mRNA [3], the “LDLR mRNA expression” value is “potent and dose-dependent effects”. The “Activity on DiI-LDL uptake” value with HepG2 cells (A: compound dose ≦ 10 μM) is listed as “++”.
